Measurements taken from article PMC5428017, “Targeting to the non-genomic activity of retinoic acid receptor-gamma by acacetin in hepatocellular carcinoma” (Scientific Reports, 2017).
Changes are numbered by the printed parent chain.

Legend:
[1] = target: T1, retinoic acid receptor-γ (RARγ) (Homo sapiens, UniProt P13631); assay: competitive radioligand displacement of [3H]atRA from purified RARγ LBD; supported by GFP-RARγ fluorescence quenching in cells and reporter antagonism; assay type: binding
T1 construct: gene RARG; RARγ LBD
T1 sequence (P13631 185-419 limits assumed): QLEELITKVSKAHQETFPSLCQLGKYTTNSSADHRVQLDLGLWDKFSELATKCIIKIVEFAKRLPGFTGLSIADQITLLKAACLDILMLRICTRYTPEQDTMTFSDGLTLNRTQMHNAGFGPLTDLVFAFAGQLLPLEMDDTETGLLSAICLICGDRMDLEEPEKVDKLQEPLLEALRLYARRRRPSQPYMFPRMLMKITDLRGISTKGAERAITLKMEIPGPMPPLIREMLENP

RARα = target: T2, RARα (Homo sapiens, UniProt P10276); assay: competitive radioligand displacement of [3H]atRA from RARα LBD; assay type: binding
T2 construct: gene RARA; RARα LBD
T2 sequence (P10276 183-417 limits assumed): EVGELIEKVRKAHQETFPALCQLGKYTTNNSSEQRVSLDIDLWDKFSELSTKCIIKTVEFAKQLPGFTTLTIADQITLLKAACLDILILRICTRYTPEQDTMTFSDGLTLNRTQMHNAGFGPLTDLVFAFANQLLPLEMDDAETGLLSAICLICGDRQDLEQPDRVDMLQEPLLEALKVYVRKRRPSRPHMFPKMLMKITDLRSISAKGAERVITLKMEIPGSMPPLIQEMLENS

[2] = target: T3, retinoic acid receptor-γ (RARγ) (Homo sapiens, UniProt P13631, R278A); assay: Gal4-RARγ luciferase reporter in HEK293T cells, […] atRA; assay type: cell-based; conditions: 0.1 µM
T3 construct: gene RARG; Gal4-RARγ/R278A
T3 sequence (P13631 185-419 R278A limits assumed): T1 sequence (P13631 185-419 limits assumed) with R94A

RARβ = target: T4, RARβ (Homo sapiens, UniProt P10826); assay: competitive radioligand displacement of [3H]atRA from RARβ LBD; assay type: binding
T4 construct: gene RARB; RARβ LBD
T4 sequence (P10826 183-417 limits assumed): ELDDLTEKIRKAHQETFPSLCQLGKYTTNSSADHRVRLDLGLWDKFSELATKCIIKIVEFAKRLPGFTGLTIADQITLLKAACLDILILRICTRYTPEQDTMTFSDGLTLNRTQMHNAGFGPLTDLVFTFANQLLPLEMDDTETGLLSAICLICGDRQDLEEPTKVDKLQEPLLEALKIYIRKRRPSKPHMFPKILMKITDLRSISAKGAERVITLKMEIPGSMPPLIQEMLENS

IC50 [1] [µM]	Structure (SMILES)	competitive radioligand displacement of [3H]atRA from RARα LBD (RARα)	Gal4-RARγ luciferase reporter in HEK293T cells, 10^-7 M atRA [2] [fold activation]	competitive radioligand displacement of [3H]atRA from RARβ LBD (RARβ)
12.8	COc1ccc(-c2cc(=O)c3c(O)cc(O)cc3o2)cc1 [acacetin, 5,7-dihydroxy-4′-methoxyflavone]			
	CC1=C(/C=C/C(C)=C/C=C/C(C)=C/C(=O)O)C(C)(C)CCC1 [atRA]	both [^3H]atRA-bound complexes could be displaced by unlabeled atRA but not by acacetin	22	both [^3H]atRA-bound complexes could be displaced by unlabeled atRA but not by acacetin
